{"source": "patent US20220008388A1", "about": "(Certego Therapeutics Inc., priority 2018, published 2022)", "key": {"[1]": {"conditions": "female mother rats; cited from earlier work"}, "[2]": {"tested_on": "immediate early gene c-fos expression in the brain", "conditions": "mouse", "protocol": "(A) Mice were treated with a drug or vehicle solution for the control group using either intraperitoneal (i.p.), per oral (p.o.). subcutaneous (s.c.), intramuscular (i.m.) or intravenous (i.v.) delivery.\n(C) After the aforementioned c-fos induction period, the mice were sacrificed and the c-fos induction was visualized using whole-brain immunostaining. The brains were then chemically cleared and imaged by light-sheet fluorescent microscopy (LSFM).\n(D) The whole-brain scans are depicted as serial section datasets with an XYZ resolution of about 4×4×5 microns.\n(E) The c-fos-positive cells were detected in these datasets using custom algorithms.\n(F) The whole-brain distribution of the detected c-fos-positive cells was then represented in 3D as a spatial map of centroid points in the 3D space of the mouse brain.\n(G) This 3D map distribution was registered to a reference mouse brain and spatially voxelized using overlapping 150-micron sphere voxels.\nThis method called “pharmacomapping” (implemented as a fee for service by CRO Certerra, Inc. Farmingdale, N.Y.) is based on a proprietary and largely automated drug-screening platform that comprises whole-brain detection of drug-evoked neuronal activation represented by drug-evoked expression of the immediate early gene (IEG) c-fos. Until now, the detection of c-fos as a marker of brain activation required time-consuming, laborious methods such as in situ hybridization or immunohistochemistry in brain tissue sections, followed by mounting the sections on microscopic slides, manual imaging, and largely visual quantification. Nevertheless, over the last two decades a number of studies used these methods to test drug-evoked activity in the mouse or rat brain for various psychoactive medications, including antipsychotics, antidepressants, stimulants and anxiolytics (Engber et al., 1998; Salminen et al., 1996; SEMBA et al., 1996; Slattery et al., 2005; Sumner et al., 2004).\nIn contrast to the older methods, the pharmacomapping method uses largely automated and standardized whole-brain immunostaining and brain clearing together with advanced microscopy (light-sheet fluorescence microscopy, LSFM), computational (e.g. machine learning) and statistical methods (FIG. 1; see, for example, the published U.S. Patent Application No. 2014/0297199, the content of which is incorporated by reference herein in its entirety). The first generation of this platform used serial two-photon tomography (STPT) as a method for imaging and c-fos-GFP mice expressing green fluorescent protein (GFP) under the control of the c-fos promoter (see, e.g., published U.S. Patent Application No. 2014/0297199, the content of which is incorporated by reference herein in its entirety).\nThe second generation of the pharmacomapping platform currently employed by Certerra uses whole-brain immunostaining and clearing procedure named iDISCO+ and whole-brain imaging by light-sheet fluorescence microscopy to detect c-fos-positive neurons in wild type mice (Renier et al., 2016)."}, "[3]": {"tested_on": "d-amphetamine-induced hyperactivity", "experiment": "d-amphetamine-induced hyperlocomotion, rodent model of mania", "type": "in vivo", "conditions": "mice, 20 min before d-amphetamine 3.5 mg/kg"}, "[4]": {"conditions": "cited from earlier work"}, "[5]": {"conditions": "cited from earlier work", "remark": "listed apart in the source"}}, "note": "“Also recorded” adds a separate entry of the source. Where two headings read alike, the source gives them in different places.", "data": [{"smiles": "[6Li]", "note": "[lithium-6]", "values": [{"measurement": "state of alertness compared to control rats fed placebo", "setting": "[1]", "result": "very high"}]}, {"smiles": "O=C([O-])[O-].[Li+].[Li+]", "note": "[lithium, lithium carbonate]", "values": [{"measurement": "brain activation (c-fos induction)", "setting": "[2]; lithium 85 mg/kg alone (HED about 425 mg)", "result": "did not elicit any detectable c-fos signaling activity; also recorded: neither gaboxadol at 3 mg/kg nor lithium at 85 mg/kg alone evoked any brain activation; also recorded: neither lithium at 85 mg/kg (top row; human equivalent dose about 425 mg), nor gaboxadol at 3 mg/kg (middle row; human equivalent dose about 15 mg) induced any brain activation on their own"}, {"measurement": "brain activation (c-fos induction)", "setting": "[2]; lithium 120 mg/kg (HED about 600 mg)", "result": "modest to moderate activation of a few structures"}, {"measurement": "brain activation (c-fos induction)", "setting": "[2]; lithium 150 mg/kg alone (HED about 750 mg)", "result": "modest to moderate activation of a few structures; also recorded: moderate brain activation"}, {"measurement": "brain activation (c-fos induction)", "setting": "[2]; lithium 200 mg/kg alone (HED about 1000 mg)", "result": "considerably broader activation; also recorded: moderate brain activation"}, {"measurement": "brain activation (c-fos induction)", "setting": "[2]; lithium 300 mg/kg (HED about 1500 mg)", "result": "prominently activated; also recorded: closely matched that of gaboxadol at 20 mg/kg; also recorded: broad activation pattern"}, {"measurement": "brain activation (c-fos induction)", "setting": "[2]; lithium 400 mg/kg as printed", "result": "considerably broader activation"}, {"measurement": "moderation of d-amphetamine-induced locomotion (ambulatory counts)", "setting": "[3]; lithium 14.1 mg/kg", "result": "had no behavioral effect; also recorded: not moderated"}, {"measurement": "state of alertness compared to control rats fed placebo", "setting": "[1]", "result": "low"}, {"measurement": "people who stopped taking lithium because of adverse events", "setting": "[4]; BD patients, epidemiological study (Öhlund et al., 2018)", "result": 62, "unit": "%"}, {"measurement": "patients showing good long-term efficacy", "setting": "[4]; BD patients, long-term maintenance (Scott et al., 2017)", "result": "approximately 30%"}, {"measurement": "lithium concentration in drinking water with anti-suicide effect", "setting": "[4]; drinking water", "result": "less than 150 μg/L"}, {"measurement": "serum lithium concentration associated with mild toxicity", "setting": "[4]; human", "result": "1.2 to 2.5", "unit": "mmol/L"}, {"measurement": "serum lithium concentration that can be life-threatening", "setting": "[4]; human", "result": "greater than 3.5 mmol/L"}, {"measurement": "serum lithium concentration for maintenance treatment", "setting": "[4]; maintenance of bipolar disorder", "result": "0.6 to 1.0", "unit": "mmol/L"}]}, {"smiles": "Oc1noc2c1CCNC2", "note": "[gaboxadol, 4,5,6,7-tetrahydroisoxazolo (5,4-c) pyridin-3-ol]", "values": [{"measurement": "adverse side-effects in clinical trials", "setting": "[5]; human doses equivalent to the mouse 6 mg/kg dose", "result": "no adverse side-effects"}, {"measurement": "effects in sleep onset and sleep maintenance", "setting": "[5]; insomnia, three-month efficacy study", "result": "failed to show significant effects"}, {"measurement": "brain activation (c-fos induction)", "setting": "[2]; gaboxadol 3 mg/kg alone (HED about 15 mg)", "result": "did not elicit any detectable c-fos signaling activity; also recorded: neither gaboxadol at 3 mg/kg nor lithium at 85 mg/kg alone evoked any brain activation; also recorded: nor gaboxadol at 3 mg/kg (middle row; human equivalent dose about 15 mg) induced any brain activation on their own"}, {"measurement": "brain activation (c-fos induction)", "setting": "[2]; gaboxadol 6 mg/kg alone (HED about 30 mg)", "result": "moderate brain activation"}, {"measurement": "brain activation (c-fos induction)", "setting": "[2]; gaboxadol 20 mg/kg (HED about 100 mg)", "result": "broad cortical activation"}, {"measurement": "moderation of d-amphetamine-induced locomotion (ambulatory counts)", "setting": "[3]; gaboxadol 3 mg/kg, Anova p=0.007, Fisher's PLSD p=0.6", "result": "only modestly"}]}]}
